Measurements published in paper PMC3025922 (BMC Biology, 2010).

Columns and labels:
[1] = system: nuclear p27 in LNCaP-S14 cells; assay type: cell-based, human; details: primary screening
[2] = biological target: PDGF receptor tyrosine kinase; details: vendor annotation of library compound (Biomol EI-215); cited from earlier work

Structure (SMILES): CC(C)(C)c1cc(C=C(C#N)C#N)cc(C(C)(C)C)c1O [1362L21]
- Z score (aver) ([1]; nuclear p27 in LNCaP-S14 cells): 6.21
- Clasf ([1]; S = strong, M = medium, W = weak by Z score): S (strong (Z score > 5))
- IC50 [2]: 1200 nM
